The values below come from ChEMBL document CHEMBL3603748, “Design of HIV-1 Protease Inhibitors with Amino-bis-tetrahydrofuran Derivatives as P2-Ligands to Enhance Backbone-Binding Interactions: Synthesis, Biological Evaluation, and Protein-Ligand X-ray Studies” (J Med Chem, 2015).

Assay [1] relates to Human immunodeficiency virus 1. The experiment in a line: Antiviral activity against HIV1 LAI infected in human MT2 cells. As to conditions: Human immunodeficiency virus 1, LAI. The class given is functional, organism-based.
In the next assay the target is Protease (Human immunodeficiency virus 1, UniProt Q9YQ12). The experiment in a line: Inhibition of HIV1 protease.
Sequence of Protease (Q9YQ12 whole entry): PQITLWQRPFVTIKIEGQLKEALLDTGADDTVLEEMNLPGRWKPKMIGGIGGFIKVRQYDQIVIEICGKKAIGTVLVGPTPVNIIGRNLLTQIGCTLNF
For assay [2], the system named is Human immunodeficiency virus 1. The experiment in a line: Antiviral activity against HIV1 NL4-3 infected in human MT4 cells by XTT assay. Type of assay: functional, organism-based. As to conditions: Human immunodeficiency virus 1, NL4-3, MT4.
The subject of assay [3] is Human immunodeficiency virus 1. The experiment in a line: Antiviral activity against darunavir-resistant HIV1 P20 infected in human MT4 cells by XTT assay. As to conditions: Human immunodeficiency virus 1, P20, MT4. Type of assay: functional, organism-based.
Assay [4] has as its system Human immunodeficiency virus 1. The experiment in a line: Resistance index, ratio of EC50 for darunavir-resistant HIV1 P20 infected in human MT4 cells by XTT assay to EC50 for HIV1 NL4-3 infected in human MT4 cells by XTT assay. Type of assay: functional.
In assay [5] the test system is Human immunodeficiency virus 1. Kind of assay: Antiviral activity against darunavir-resistant HIV1 P10 infected in human MT4 cells by XTT assay. As to conditions: Human immunodeficiency virus 1, P10, MT4. The class given is functional, organism-based.
Assay [6] deals with Human immunodeficiency virus 1. Kind of assay: Antiviral activity against darunavir-resistant HIV1 P51 infected in human MT4 cells by XTT assay. The class given is functional, organism-based. As to conditions: Human immunodeficiency virus 1, P51, MT4.

The molecule `COC(=O)N[C@H]1CO[C@@H]2OC[C@H](OC(=O)N[C@@H](Cc3ccccc3)[C@H](O)CN(CC(C)C)S(=O)(=O)c3ccc(OC)cc3)[C@@H]21` displayed an IC50 in assay [1] of 3.7 nM. The inhibitory constant (Ki) at Protease came out at 0.024 nM.
`CN[C@H]1CO[C@@H]2OC[C@H](OC(=O)N[C@@H](Cc3ccccc3)[C@H](O)CN(CC(C)C)S(=O)(=O)c3ccc(OC)cc3)[C@@H]21`: the concentration giving a half-maximal response (EC50) was determined as 29 nM in assay [2] and 32 nM in assay [3]. For the same molecule, the IC50 in assay [1] is 35 nM. Moreover, the “Ratio EC50” value in assay [4] is listed as 1.1. Further, the affinity at Protease, expressed as Ki, was 0.0015 nM.
In assay [1], `COc1ccc(S(=O)(=O)N(CC(C)C)C[C@@H](O)[C@H](Cc2ccccc2)NC(=O)O[C@H]2CO[C@H]3OC[C@H](N)[C@H]32)cc1` yielded an IC50 of 48 nM. Further, the inhibition constant Ki on Protease was found to be 0.53 nM.
Regarding `CCN(CC)[C@H]1CO[C@@H]2OC[C@H](OC(=O)N[C@@H](Cc3ccccc3)[C@H](O)CN(CC(C)C)S(=O)(=O)c3ccc(OC)cc3)[C@@H]21`, the IC50 in assay [1] was determined as 7.2 nM. This molecule also gave an inhibition constant Ki at Protease of 0.014 nM.
In turn, `COc1ccc(S(=O)(=O)N(CC(C)C)C[C@@H](O)[C@H](Cc2ccccc2)NC(=O)O[C@H]2CO[C@H]3OC[C@H](N(C)C(=O)OC(C)(C)C)[C@H]32)cc1` had a half-inhibitory concentration (IC50) in assay [1] of 37 nM. Besides, at Protease, the Ki came to 0.012 nM.
The molecule `COc1ccc(S(=O)(=O)N(CC(C)C)C[C@@H](O)[C@H](Cc2ccccc2)NC(=O)O[C@H]2CO[C@H]3OC[C@H](N(C)C)[C@H]32)cc1` returned a half-maximal inhibitory concentration (IC50) in assay [1] of 4.4 nM. Besides, the Ki at Protease is 0.014 nM.
In turn, `CCN(C(=O)OC(C)(C)C)[C@H]1CO[C@@H]2OC[C@H](OC(=O)N[C@@H](Cc3ccccc3)[C@H](O)CN(CC(C)C)S(=O)(=O)c3ccc(OC)cc3)[C@@H]21` came in with an inhibition constant (Ki) at Protease of 0.048 nM.
For the molecule `COc1ccc(S(=O)(=O)N(CC(C)C)C[C@@H](O)[C@H](Cc2ccccc2)NC(=O)O[C@H]2CO[C@H]3OC[C@H](NC(C)C)[C@H]32)cc1`, the concentration for a half-maximal effect (EC50) was found to be 21 nM in assay [5], 260 nM in assay [6], 1 nM in assay [2] and 24 nM in assay [3]. This molecule showed an IC50 in assay [1] of 0.34 nM. Moreover, the “Ratio EC50” value in assay [4] was 23. For the same molecule, the Ki at Protease came out at 0.0063 nM.
As for `CCN[C@H]1CO[C@@H]2OC[C@H](OC(=O)N[C@@H](Cc3ccccc3)[C@H](O)CN(CC(C)C)S(=O)(=O)c3ccc(OC)cc3)[C@@H]21`, the EC50 in assay [5] came to 39 nM; in assay [6] it was 230 nM; in assay [2] it was 15 nM. In assay [1], the concentration for half-maximal inhibition (IC50) turned out to be 22 nM. Also, the Ki at Protease turned out to be 0.027 nM.
In turn, `CN[C@H]1CO[C@@H]2OC[C@H](OC(=O)N[C@@H](Cc3ccccc3)[C@H](O)CN(CC(C)C)S(=O)(=O)c3ccc(N)cc3)[C@@H]21` came in with an IC50 in assay [1] of 480 nM. At Protease, the affinity, expressed as Ki, was 0.0099 nM.
Turning to `COc1ccc(S(=O)(=O)N(CC(C)C)C[C@@H](O)[C@H](Cc2ccccc2)NC(=O)O[C@H]2CO[C@H]3OC[C@H](NC(=O)OC(C)(C)C)[C@H]32)cc1`, the half-maximal inhibitory concentration (IC50) in assay [1] was 4.4 nM. The molecule also displayed an inhibition constant Ki at Protease of 0.014 nM.
With `COc1ccc(S(=O)(=O)N(CC(C)C)C[C@@H](O)[C@H](Cc2ccccc2)NC(=O)O[C@H]2CO[C@H]3OC[C@H](N=[N+]=[N-])[C@H]32)cc1`, inhibition in assay [1] was half-maximal at 4.4 nM (IC50). Also, the inhibition constant (Ki) on Protease was found to be 0.0039 nM.
